Measurements as given in patent US20130197080A1, “USE OF TERIFLUNOMIDE FOR TREATING MULTIPLE SCLEROSIS” (SANOFI, priority 2010, published 2013).

How the values were obtained:
[1] = system: patients with RMS; experiment: TEMSO Phase III trial: relapses, disability progression, fatigue; type: in vivo, humans; conditions: for Hazard ratio for teriflunomide vs placebo (12-week sustained disability progression) / Hazard ratio for teriflunomide vs placebo (relapse): Cox model; for Patients with a 12-week sustained disability progression / Patients without relapse during 108 weeks: Kaplan-Meier estimate; for Fatigue Impact scale score, LS mean change from baseline: MMRM
From the text: They were required to have a score of no more than 5.5 on the Kurtzke Expanded Disability Status Scale (EDSS), a minimum of two clinical relapses in the previous 2 years or one relapse during the preceding year, but no relapses in the 60 days before randomization. During the 4 weeks prior to randomization, patients were required to be clinically stable and have signed both the informed consent form and informed consent for HIV testing.
(§1) A treatment neurologist at each site was responsible for evaluating patient eligibility, supervision of study medication administration, recording and treating adverse events and assessing relapses, and monitoring safety assessments. An independent examining neurologist, blinded to treatment assignment, performed all EDSS scores and functional system assessments. EDSS scores were determined at screening, baseline, every 12 weeks following baseline visit, and at unscheduled relapse visits. MRI scans were performed at baseline and Weeks 24, 48, 72 and 108, and conducted according to the study protocol; image data were collected at clinical site MRI facilities.
For suspected relapses occurring between study visits, patients were required to attend the study site within 7 days of symptom onset for objective assessment by the examining neurologist. Relapses could be treated with intravenous corticosteroids at the investigator's discretion.
The primary study objective was to determine the effect of teriflunomide in reducing annualized relapse rate (ARR; the number of confirmed relapses per patient-year). A relapse was defined as the appearance of a new clinical sign or symptom or clinical worsening of a previous sign or symptom that had been stable for at least 30 days and persisted for a minimum of 24 hours in the absence of fever. Confirmed relapses required an increase of 1 point in at least two functional systems, or an increase of 2 points in at least one functional system (excluding bowel/bladder and cerebral function), or an increase of 0.5 points in EDSS score (1.0 for EDSS=0) from the previous clinically stable assessment.
(§2) The key secondary endpoint was to determine the effect of teriflunomide on delaying disability progression at Week 108 as assessed by changes in EDSS. Sustained disability progression was defined as a persisting increase from baseline of at least 1.0 point on the EDSS (or at least 0.5 for patients with a baseline EDSS score greater than 5.5) for at least 12 weeks. The key prespecified MRI endpoint was the effect of teriflunomide on burden of disease (total lesion volume). Other MRI endpoints included number of gadolinium (Gd)-enhancing T1 lesions, volume of T1 hypointense lesion components (‘black holes’), number of unique active lesions and brain atrophy. Patient-reported fatigue, assessed by the Fatigue Impact Scale (FIS), was an additional secondary endpoint.
A sample size of 360 randomized patients per group was required to provide 95% statistical power to detect relative risk reductions (RRR) of 25% in ARR after 2 years, assuming a placebo ARR of 0.74 and standard deviation of 0.626. All analyses followed an intention-to-treat (ITT) principle and all inferential analyses were performed at the 2-sided 5% level of significance. ARR was analyzed using a Poisson regression model with robust error variance. The model included the total number of confirmed relapses as the response variable, and treatment, baseline EDSS strata, and region as covariates, and log transformed duration of treatment as offset variable.
Disability progression was analyzed using a log-rank test with time to first disability progression as the dependent variable, treatment as test variable, and region and baseline EDSS score as strata variables. Kaplan-Meier estimates and curves of the cumulative incidence were used to assess the rate of disability progression in patients across time points. […]

[2] = system: patients with RMS; experiment: TEMSO Phase III trial: MRI outcomes; type: in vivo, humans; conditions: 108 weeks; for Brain parenchymal fraction, LS mean change from baseline / Brain parenchymal fraction, LS mean difference vs placebo / Brain parenchymal fraction, Relative reduction vs placebo: MMRM; for Number of Gd-enhancing T1 lesions per scan, Estimate / Number of unique active lesions per scan, Estimate: Poisson regression
Procedure: as §1, §2
Change from baseline in burden of disease and T1 hypointense lesion volume were analysed with a mixed-effect model with repeated measures (MMRM) using cubic root transformed data. Atrophy was analysed as change from baseline brain volume with the MMRM. The number of Gd-enhancing T1 lesions and number of unique active lesions per scan were analysed using a Poisson regression model with robust error variance. The percentage of patients free from lesions was analysed using a logistic regression model. MRI scans obtained within 14 days of systemic corticosteroid therapy were excluded from all analyses.
The MMRM model (mixed-effect model with repeated measures) included treatment, EDSS strata, region, visit, treatment-by-visit interaction, baseline value and baseline-by-visit interaction as covariates. The percentage of patients free from lesions was analysed by a logistic regression model that included treatment, number of lesions at baseline, EDSS strata and region as covariates. The Poisson regression model included treatment, number of lesions at baseline, EDSS strata and region as covariates, and log-transformed number of scans as an offset variable. The change from baseline in fatigue impact scale (FIS) total score was analyzed using MMRM.

[3] = 7 mg once daily oral, 108 weeks, ITT population
[4] = 7 mg once daily oral, 108 weeks, ITT population (N = 365)
[5] = 7 mg once daily oral, ITT population
[6] = 14 mg once daily oral, 108 weeks, ITT population
[7] = 14 mg once daily oral, 108 weeks, ITT population (N = 358)
[8] = 14 mg once daily oral, ITT population
[9] = 7 mg once daily oral vs placebo
[10] = 7 mg once daily oral, MMRM using cubic root transformed volume data
[11] = 14 mg once daily oral vs placebo
[12] = 14 mg once daily oral, MMRM using cubic root transformed volume data

C/C(O)=C(\C#N)C(=O)Nc1ccc(C(F)(F)F)cc1 [teriflunomide, (Z)-2-cyano-3-hydroxy-but-2-enoic acid-(4′-trifluoromethylphenyl)-amide]
Hazard ratio for teriflunomide vs placebo (12-week sustained disability progression) [1, 3]: 0.763
Hazard ratio for teriflunomide vs placebo (relapse) [1, 3]: 0.756
Adjusted Annualized Relapse Rate [1, 3]: 0.370
Hazard ratio reduction vs placebo (disability progression) [1, 3]: 23.7%
No. of relapses 0 - patients (%) [1, 3]: (57.8) %
No. of relapses 1 - patients (%) [1, 3]: (25.2) %
No. of relapses 2 - patients (%) [1, 3]: (13.4) %
No. of relapses 3 - patients (%) [1, 3]: (2.7) %
No. of relapses ≧4 - patients (%) [1, 3]: (0.8) %
Relative Reduction in Annualized Relapse rate vs placebo [1, 3]: 31.2%
No. of relapses 0 - no. of patients [1, 4]: 211
No. of relapses 1 - no. of patients [1, 4]: 92
No. of relapses 2 - no. of patients [1, 4]: 49
No. of relapses 3 - no. of patients [1, 4]: 10
No. of relapses ≧4 - no. of patients [1, 4]: 3
Patients with a 12-week sustained disability progression [1, 3]: 21.7%
Fatigue Impact scale score, LS mean change from baseline [1, 3]: 2.3
Patients without relapse during 108 weeks [1, 5]: 53.7%
patients who discontinued treatment due to disease progression, compared with placebo ([1]; 14 mg group, p=0.02): lower number
Hazard ratio for teriflunomide vs placebo (12-week sustained disability progression) [1, 6]: 0.702
Hazard ratio for teriflunomide vs placebo (relapse) [1, 6]: 0.719
Adjusted Annualized Relapse Rate [1, 6]: 0.369
No. of relapses 0 - patients (%) [1, 6]: (60.6) %
No. of relapses 1 - patients (%) [1, 6]: (24.0) %
No. of relapses 2 - patients (%) [1, 6]: (9.2) %
No. of relapses 3 - patients (%) [1, 6]: (4.5) %
No. of relapses ≧4 - patients (%) [1, 6]: (1.7) %
No. of relapses 0 - no. of patients [1, 7]: 217
No. of relapses 1 - no. of patients [1, 7]: 86
No. of relapses 2 - no. of patients [1, 7]: 33
No. of relapses 3 - no. of patients [1, 7]: 16
No. of relapses ≧4 - no. of patients [1, 7]: 6
Patients with a 12-week sustained disability progression [1, 6]: 20.2%
Fatigue Impact scale score, LS mean change from baseline [1, 6]: 3.8
Patients without relapse during 108 weeks [1, 8]: 56.5%
Patient-reported fatigue (FIS scores) ([1]; all treatment groups, during the study): remained stable
brain atrophy from baseline vs placebo ([2]; 7 mg and 14 mg groups): No significant differences
Number of Gd-enhancing T1 lesions per scan, Relative risk [2, 9]: 0.428
Number of unique active lesions per scan, Relative risk [2, 9]: 0.523
Number of Gd-enhancing T1 lesions per scan, Relative reduction vs placebo ([2]; 7 mg once daily oral): 57.2%
Number of unique active lesions per scan, Relative reduction vs placebo ([2]; 7 mg once daily oral): 47.7%
Burden of disease, Mean change from baseline [2, 5]: 1.308 mL
Proportion of patients free from Gd-enhancing T1 lesions, % [2, 5]: (51.4) %
T1 hypointense lesion volume, Mean change from baseline [2, 5]: 0.499 mL
Brain parenchymal fraction, LS mean change from baseline ([2]; 7 mg once daily oral): −0.003
Brain parenchymal fraction, LS mean difference vs placebo ([2]; 7 mg once daily oral): 0.001
Brain parenchymal fraction, Relative reduction vs placebo ([2]; 7 mg once daily oral): 25.0%
Burden of disease, LS mean change from baseline [2, 10]: 0.080 mL
Burden of disease, LS mean difference vs placebo [2, 10]: -0.053 mL
Burden of disease, Relative reduction vs placebo [2, 10]: 39.4%
T1 hypointense lesion volume, LS mean change from baseline [2, 10]: 0.079 mL
T1 hypointense lesion volume, LS mean difference vs placebo [2, 10]: -0.016 mL
T1 hypointense lesion volume, Relative reduction vs placebo [2, 10]: 16.7%
Number of Gd-enhancing T1 lesions per scan, Estimate [2, 5]: 0.570
Number of unique active lesions per scan, Estimate [2, 5]: 1.288
Number of Gd-enhancing T1 lesions per scan, Relative risk [2, 11]: 0.196
Number of unique active lesions per scan, Relative risk [2, 11]: 0.306
Burden of disease, Mean change from baseline [2, 8]: 0.723 mL
T1 hypointense lesion volume, Mean change from baseline [2, 8]: 0.331 mL
Brain parenchymal fraction, LS mean change from baseline ([2]; 14 mg once daily oral): −0.003
Brain parenchymal fraction, LS mean difference vs placebo ([2]; 14 mg once daily oral): 0.001
Brain parenchymal fraction, Relative reduction vs placebo ([2]; 14 mg once daily oral): 25.0%
Burden of disease, LS mean change from baseline [2, 12]: 0.043 mL
Burden of disease, LS mean difference vs placebo [2, 12]: -0.089 mL
T1 hypointense lesion volume, LS mean change from baseline [2, 12]: 0.066 mL
T1 hypointense lesion volume, LS mean difference vs placebo [2, 12]: -0.030 mL
Number of Gd-enhancing T1 lesions per scan, Estimate [2, 8]: 0.261
Number of unique active lesions per scan, Estimate [2, 8]: 0.754
